Measurements taken from patent publication US9074014B2 (Ipsen Pharma S.A.S., priority 2008, dated 2015).
*1 amine or outer side, *2 acyl side, *3 side chain or, on linkers, in order; H or OH if unused. Where no end group is shown, it is not given here. [ ]: non-standard residue; d: D form. X2 = O=C([C@@H]1CC(O)CN1[*:1])[*:2]; Tic = O=C(O)[C@@H]1Cc2ccccc2CN1; ΔPro = O=C(O)[C@@H]1C=CCN1; Ac6c = NC1(C(=O)O)CCCCC1; Nle = CCCC[C@H](N)C(=O)O; Ac5c = NC1(C(=O)O)CCCC1; Aib = CC(C)(N)C(=O)O

Key:
[1] = Human plasma half-life assay; format: in vitro ADME; settings: human plasma, 37° C., LC-MS; for half-life at 0.1 mg/ml: read-out: Human Plasma T½ (converted)
[2] = Rat plasma half-life assay; format: in vitro ADME; settings: rat plasma, 37° C., LC-MS; for half-life at 0.1 mg/ml: read-out: Rat Plasma T½ (converted)

Row | Substance | half-life at 0.1 mg/ml [1] [h] | half-life at 0.1 mg/ml [2] [h] | Human Plasma T½ [1] [h] | Rat Plasma T½ [2] [h]
1 | YA[Tic]GTFISDY[Ac5c]IAMDKIHQQDFVNWLLAQKGKKNDWKHNITQ-OH [Example 82, (Tic^3, A5c^11)hGIP(1-42)-OH] | 9.7 | 10.2 | – | –
2 | YA[Tic]GTFISDY[Ac5c]IA[Ac6c]DKIHQQDFVNWLLAQKGKKNDWKHNITQ-OH [Example 89, (Tic^3, A5c^11, A6c^14)hGIP(1-42)-OH] | > 48 | 11.8 | – | –
3 | YA[X2]GTFISDYSI[Aib]MDKIHQQDFVNWLLAQKGKKNDWKHNITQ [Example 67, (4Hyp^3, Aib^13)hGIP(1-42)-OH] | > 33 | 1.6 | – | –
4 | YA[ΔPro]GTFISDYSI[Aib][Nle]DKIHQQDFVNWLLAQKGKKNDWKHNITQ-OH [Example 64, (Dhp^3, Aib^13, Nle^14)hGIP(1-42)-OH] | – | – | 41.3 | 47.5
5 | YGEGTFISDY[Ac5c]IAMDKIHQQDFVNWLLAQKGKKNDWKHNITQH-OH [Example 117, (Gly^2, A5c^11, His^43)hGIP(1-43)-OH] | 25.2 | 10.5 | – | –
6 | Y[Ac5c]EGTF[Ac5c]SDYSIA[Ac6c]DKIHQQDFVNWLLAQKGKKNDWKHNITQ-OH [Example 56, (A5c^2,7, A6c^14)hGIP(1-42)-OH] | 16 | 9.2 | – | –
7 | Y[Aib]EGTFISDYS[Ac5c]AMDKIHQQDFVNWLLAQKGKKNDWKHNITQ-OH [Example 7, (Aib^2, A5c^12)hGIP(1-42)-OH] | 37.1 | 5.3 | – | –
8 | Y[Aib]EGTFISDYS[Aib]AMDKIHQQDFVNWLLAQKGKKNDWKHNITQ-OH [Example 8, (Aib^2, 12)hGIP(1-42)-OH] | > 48 | 4.5 | – | –
9 | Y[Aib]EGTFISDY[Ac5c]IAMDKIHQQDFVNWLLAQKGKKNDWKHNITQ-OH [Example 53, (Aib^2, A5c^11)hGIP(1-42)-OH] | 33.3 | 51.7 | – | –
10 | Y[Aib]EGTFISDY[Ac5c]IA[Ac6c]DKIHQQDFVNWLLAQKGKKNDWKHNITQ-OH [Example 61, (Aib^2, A5c^11, A6c^14)hGIP(1-42)-OH] | > 48 | 45.3 | – | –
11 | Y[Aib]EGTFISDY[Ac5c]IA[Nle]DKIHQQDFVNWLLAQKGKKNDWKHNITQ-OH [Example 54, (Aib^2, A5c^11, Nle^14)hGIP(1-42)-OH] | > 56 | 44.1 | – | –
12 | Y[Aib]EGTFISDY[Aib]IAMDKIHQQDFVNWLLAQKGKKNDWKHNITQ-OH [Example 1, (Aib^2, 11)hGIP(1-42)-OH] | > 48 | 3.9 | – | –
13 | Y[Aib]EGTFISDY[Aib]IA[Nle]DKIHQQDFVNWLLAQKGKKNDWKHNITQ-OH [Example 45, (Aib^2, 11, Nle^14)hGIP(1-42)-OH] | 18.2 | 11.6 | – | –
14 | Y[Aib]EGTFIS[Aib]YSIAMDKIHQQDFVNWLLAQKGKKNDWKHNITQ-OH [Example 2, (Aib^2, 9)hGIP(1-42)-OH] | 9.4 | 5.6 | – | –
15 | Y[Aib]EGTFI[Aib]DYSIAMDKIHQQDFVNWLLAQKGKKNDWKHNITQ-OH [Example 9, (Aib^2, 8)hGIP(1-42)-OH] | > 48 | 9.2 | – | –
16 | Y[Aib]EGTF[Ac5c]SDYSIAMDKIHQQDFVNWLLAQKGKKNDWKHNITQ-OH [Example 6, (Aib^2, A5c^7)hGIP(1-42)-OH] | > 48 | 8.6 | – | –
17 | Y[Aib]EGTF[Ac5c]SDYSIA[Ac5c]DKIHQQDFVNWLLAQKGKKNDWKHNITQ-OH [Example 59, (Aib^2, A5c^7, 14)hGIP(1-42)-OH] | 24 | 13.1 | – | –
18 | Y[Aib]EGTF[Ac5c]SDYSIA[Ac6c]DKIHQQDFVNWLLAQKGKKNDWKHNITQ-OH [Example 44, (Aib^2, A5c^7, A6c^14)hGIP(1-42)-OH] | 9.5 | 7.5 | – | –
19 | Y[Aib]EGTF[Ac5c]SDYSIA[Nle]DKIHQQDFVNWLLAQKGKKNDWKHNITQ-OH [Example 58, (Aib^2, A5c^7, Nle^14)hGIP(1-42)-OH] | 37.6 | 16.7 | – | –
